Test results from US11214594B2, “Antimicrobial peptide having synergistic antibacterial effect with antibiotics on multidrug resistant bacteria, and use thereof” (priority 2016, dated 2022).
In brackets after ≈: the same amount, converted by molar mass. Where a SMILES comes first, the peptide text is derived from it.

Tests used:
MDREC 1238 = type: cell-based, Escherichia coli
How it was run: (§1)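 Broth microdilution in MH medium: bacterial strains diluted to 2×10^6 CFU were mixed with equal volumes of peptide serially diluted twofold in MH medium.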

P. aeruginosa = assay: microbe, parasite or virus in culture; type: cell-based, Pseudomonas aeruginosa
How it was run: as §1

MDRPA 2003 = type: cell-based, Pseudomonas aeruginosa
How it was run: as §1

MDRAB 12036 = type: cell-based, Acinetobacter baumannii
How it was run: as §1

MDRST 8009 = type: cell-based, Salmonella typhimurium; details: agent alone
How it was run: as §1

S. epidermidis = assay: microbe, parasite or virus in culture; type: cell-based, Staphylococcus epidermidis
How it was run: as §1

MDREC 1229 = assay: MIC of antibiotic during combined treatment with antimicrobial peptide; type: cell-based, Escherichia coli
How it was run: (§2)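 Antibiotic MIC came from antibiotic dilutions added to bacteria (2×10^6 CFU/ml, MH medium) already combined with peptide serially diluted 2:1 from its own MIC. Swapping the roles of the two agents gave the peptide MIC.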

A. baumannii = assay: as above; type: cell-based, Acinetobacter baumannii; details: for Antibiotic MIC, Erythromycin / Antibiotic MIC, Linezolid / Antibiotic MIC, Vancomycin: A. baumannii
How it was run: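 MIC values for mixed peptide plus antibiotic solutions were measured in MH medium.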

MDRAB 12035 = assay: as above; type: cell-based, Acinetobacter baumannii
How it was run: as §2

[1] = peptide treatment concentration 1 μg/ml
[2] = peptide treatment concentration 2 μg/ml
[3] = peptide treatment concentration 4 μg/ml
[4] = peptide treatment concentration 6 μg/ml
[5] = peptide treatment concentration 8 μg/ml
[6] = peptide treatment concentration 16 μg/ml
[7] = peptide treatment concentration 32 μg/ml
[8] = peptide treatment concentration 64 μg/ml
[9] = combined with peptide at 1 μg/ml
[10] = combined with peptide at 2 μg/ml
[11] = combined with peptide at 4 μg/ml
[12] = combined with peptide at 6 μg/ml
[13] = combined with peptide at 8 μg/ml
[14] = combined with peptide at 16 μg/ml
[15] = combined with peptide at 32 μg/ml
[16] = combined with peptide at 64 μg/ml

CC[C@H](C)[C@H](NC(=O)[C@H](CCCCN)NC(=O)[C@H](Cc1c[nH]c2ccccc12)NC(=O)[C@@H](N)CCCNC(=N)N)C(=O)N[C@@H](Cc1ccccc1)C(=O)N[C@@H](CCCCN)C(=O)N[C@@H](CCCCN)C(=O)N[C@H](C(=O)N1CCC[C@H]1C(=O)N[C@@H](CCCCN)C(=O)N[C@@H](Cc1ccccc1)C(=O)N[C@@H](CC(C)C)C(=O)N[C@@H](Cc1c[nH]cn1)C(=O)N[C@@H](CCC(=O)O)C(=O)N[C@@H](C)C(=O)N[C@@H](CCCCN)C(=O)N[C@@H](CCCCN)C(=O)N[C@@H](Cc1ccccc1)C(N)=O)[C@@H](C)CC [PapMA-11, RWK IFK KIP KFL HEA KKF-NH2] (H-RWKIFKKIPKFLHEAKKF-NH2; N-terminus assumed)
Minimal inhibitory concentration MIC (MDREC 1238): 64 µg/mL (≈ 27.3 µM) | Minimal inhibitory concentration MIC (P. aeruginosa): 128 µg/mL (≈ 54.6 µM) | Minimal inhibitory concentration MIC (MDRPA 2003): >128 µg/mL | Minimal inhibitory concentration MIC (MDRAB 12036): 64 µg/mL (≈ 27.3 µM) | Minimal inhibitory concentration MIC (MDRST 8009): 64 µg/mL (≈ 27.3 µM) | Minimal inhibitory concentration MIC (S. epidermidis): >128 µg/mL | Antibiotic MIC, Erythromycin (MDREC 1229; [1]): 128 µg/mL | Antibiotic MIC, Linezolid (MDREC 1229; [1]): >128 µg/mL | Antibiotic MIC, Vancomycin (MDREC 1229; [1]): >128 µg/mL | Antibiotic MIC, Erythromycin (MDREC 1229; [2]): 64 µg/mL | Antibiotic MIC, Linezolid (MDREC 1229; [2]): >128 µg/mL | Antibiotic MIC, Vancomycin (MDREC 1229; [2]): >128 µg/mL | Antibiotic MIC, Erythromycin (MDREC 1229; [3]): 16 µg/mL | Antibiotic MIC, Linezolid (MDREC 1229; [3]): 128 µg/mL | Antibiotic MIC, Vancomycin (MDREC 1229; [3]): >128 µg/mL | Antibiotic MIC, Erythromycin (MDREC 1229; [4]): 8 µg/mL | Antibiotic MIC, Linezolid (MDREC 1229; [4]): 128 µg/mL | Antibiotic MIC, Vancomycin (MDREC 1229; [4]): >128 µg/mL | Antibiotic MIC, Erythromycin (MDREC 1229; [5]): 4 µg/mL | Antibiotic MIC, Linezolid (MDREC 1229; [5]): 32 µg/mL | Antibiotic MIC, Vancomycin (MDREC 1229; [5]): 128 µg/mL | Antibiotic MIC, Erythromycin (MDREC 1229; [6]): 1 µg/mL | Antibiotic MIC, Linezolid (MDREC 1229; [6]): 16 µg/mL | Antibiotic MIC, Vancomycin (MDREC 1229; [6]): 16 µg/mL | Antibiotic MIC, Erythromycin (MDREC 1229; [7]): 0.5 µg/mL | Antibiotic MIC, Linezolid (MDREC 1229; [7]): 8 µg/mL | Antibiotic MIC, Vancomycin (MDREC 1229; [7]): 8 µg/mL | Antibiotic MIC, Erythromycin (MDREC 1229; [8]): 0 µg/mL | Antibiotic MIC, Linezolid (MDREC 1229; [8]): 0 µg/mL | Antibiotic MIC, Vancomycin (MDREC 1229; [8]): 0 µg/mL | Synergistic effect of antibacterial activity with existing antibiotics compared with PapMA-1 (A. baumannii; A. baumannii and MDRAB 12035): level similar to that of PapMA-1 peptide | Antibiotic MIC, Erythromycin (A. baumannii; [9]): 32 µg/mL | Antibiotic MIC, Linezolid (A. baumannii; [9]): 128 µg/mL | Antibiotic MIC, Vancomycin (A. baumannii; [9]): >128 µg/mL | Antibiotic MIC, Erythromycin (A. baumannii; [10]): 16 µg/mL | Antibiotic MIC, Linezolid (A. baumannii; [10]): 128 µg/mL | Antibiotic MIC, Vancomycin (A. baumannii; [10]): 128 µg/mL | Antibiotic MIC, Erythromycin (A. baumannii; [11]): 4 µg/mL | Antibiotic MIC, Linezolid (A. baumannii; [11]): 64 µg/mL | Antibiotic MIC, Vancomycin (A. baumannii; [11]): 32 µg/mL | Antibiotic MIC, Erythromycin (A. baumannii; [12]): 1 µg/mL | Antibiotic MIC, Linezolid (A. baumannii; [12]): 32 µg/mL | Antibiotic MIC, Vancomycin (A. baumannii; [12]): 16 µg/mL | Antibiotic MIC, Erythromycin (A. baumannii; [13]): 0.5 µg/mL | Antibiotic MIC, Linezolid (A. baumannii; [13]): 16 µg/mL | Antibiotic MIC, Vancomycin (A. baumannii; [13]): 8 µg/mL | Antibiotic MIC, Erythromycin (A. baumannii; [14]): 0.25 µg/mL | Antibiotic MIC, Linezolid (A. baumannii; [14]): 8 µg/mL | Antibiotic MIC, Vancomycin (A. baumannii; [14]): 4 µg/mL | Antibiotic MIC, Erythromycin (A. baumannii; [15]): 0.125 µg/mL | Antibiotic MIC, Linezolid (A. baumannii; [15]): 2 µg/mL | Antibiotic MIC, Vancomycin (A. baumannii; [15]): 1 µg/mL | Antibiotic MIC, Erythromycin (A. baumannii; [16]): 0 µg/mL | Antibiotic MIC, Linezolid (A. baumannii; [16]): 0 µg/mL | Antibiotic MIC, Vancomycin (A. baumannii; [16]): 0 µg/mL | Erythromycin MIC during combined treatment with peptide (MDRAB 12035; [1]): 32 µg/mL | Linezolid MIC during combined treatment with peptide (MDRAB 12035; [1]): >128 µg/mL | Vancomycin MIC during combined treatment with peptide (MDRAB 12035; [1]): >128 µg/mL | Erythromycin MIC during combined treatment with peptide (MDRAB 12035; [2]): 16 µg/mL
